In patent publication US20110105472A1, “Diaminopyrimidines as crop protection agents” (Bayer CropScience AG, priority 2008, published 2011):
Marks after values point to notes of the source that are not given here.

Columns and labels:
[1] = system: Abutilon theophrasti (velvetleaf); assay: Herbicidal post-emergence action (PO), ABUTH; type: in vivo; settings: dose 1000 g/ha, rated visually after about 2 weeks
Experimental: (§1) 2. Herbicidal Post-Emergence Action (═PO)
(§2) Seeds of monocotyledonous and dicotyledonous harmful plants are placed in sandy loam, covered with soil and cultivated in a greenhouse under good growth conditions. About 2 weeks after sowing, the test plants are treated at the one-leaf stage. To this end, the compounds according to the invention, formulated as emulsion concentrates (EC), as an aqueous emulsion with a water application rate of 800 l/ha (converted), are sprayed onto the green parts of the plants. After the test plants have been kept in the greenhouse under optimum growth conditions for about 2 weeks, the effect of the preparations is rated visually in comparison to untreated controls (herbicidal effect in percent (%): 100% effect=the plants have died, 0% effect=like control plants). CAPBP=Capsella bursa-pastoris (shepherd's purse), STEME=Stellaria media (common chickweed), ABUTH=Abutilon theophrasti (velvetleaf), AMARE=Amaranthus retroflexus (redroot pigweed)

[2] = system: Amaranthus retroflexus (redroot pigweed); assay: Herbicidal post-emergence action (PO), AMARE; type: in vivo; settings: dose 1000 g/ha, rated visually after about 2 weeks
Experimental: as §1, §2

[3] = system: Capsella bursa-pastoris (shepherd's purse); assay: Herbicidal post-emergence action (PO), CAPBP; type: in vivo; settings: dose 1000 g/ha, rated visually after about 2 weeks
Experimental: as §1, §2

[4] = system: Stellaria media (common chickweed); assay: Herbicidal post-emergence action (PO), STEME; type: in vivo; settings: dose 1000 g/ha, rated visually after about 2 weeks
Experimental: as §1, §2

[5] = logP by LC-MS, method [b], acidic range pH 2.7; type: physicochemical; settings: pH 2.7
[6] = physchem; type: physicochemical; settings: pH 7.8
[7] = system: Meloidogyne incognita; assay: Meloidogyne test (spray treatment); type: in vivo; settings: concentration 20 ppm; lettuce roots
Experimental: Containers are filled with sand, active compound solution, Meloidogyne incognita egg/larvae suspension and lettuce seeds. The lettuce seeds germinate and the plants develop. On the roots, galls are formed. After the desired period of time, the nematicidal activity is determined by the formation of galls in %. 100% means that no galls were found; 0% means that the number of galls on the treated plants corresponds to that of the untreated control.

[8] = system: Capsella bursa-pastoris (shepherd's purse); assay: Herbicidal pre-emergence action (PE), CAPBP; type: in vivo; settings: dose 1000 g/ha, visual assessment after 2 weeks
Description: (§3) 1. Herbicidal Pre-Emergence Action (═Pe)
(§4) Seeds of monocotyledonous and dicotyledonous harmful plants are placed in sandy loam and covered with soil. The compounds according to the invention, formulated as emulsion concentrates (EC), are then, as an aqueous emulsion with a water application rate of 800 l/ha (converted), applied to the surface of the covering soil.
(§5) After the treatment, the pots are placed in a greenhouse and kept under good growth conditions for the test plants. The visual assessment of the damage on the test plants is carried out after a trial period of 2 weeks by comparison with untreated controls (herbicidal effect in percent (%): 100% effect=the plants have died, 0% effect=like control plants). CAPBP=Capsella bursa-pastoris (shepherd's purse), STEME=Stellaria media (common chickweed)

[9] = system: Stellaria media (common chickweed); assay: Herbicidal pre-emergence action (PE), STEME; type: in vivo; settings: dose 1000 g/ha, visual assessment after 2 weeks
Description: as §3, §4, §5

[10] = logP by HPLC on reversed-phase columns (C 18), method [a], acidic range pH 2.3; type: physicochemical; settings: pH 2.3
[11] = system: Spodoptera frugiperda larvae; assay: Spodoptera frugiperda test (SPDFR spray application); type: in vivo; settings: application rate 500 g/ha; maize plants
Experimental: Spodoptera frugiperda Test (SPDFR Spray Application)
Solvents: 78.0 parts by weight of acetone • • 1.5 parts by weight of dimethylformamide Emulsifier: 0.6 part by weight of alkylaryl polyglycol ether
Maize plants (Zea mays) are watered with an active compound preparation of the desired concentration and infected with Spodoptera frugiperda larvae.
After the desired period of time, the kill in % is determined. 100% means that all larvae have been killed; 0% means that none of the larvae have been killed.

| SMILES | herbicidal effect AMARE [2] | herbicidal effect CAPBP [3] | herbicidal effect STEME [4] | log p [5] | log p [6] | further results |
| --- | --- | --- | --- | --- | --- | --- |
| CCOC(=O)Cc1ccc(Nc2ncc(Br)c(NC3CCC3)n2)cc1 [Compound 148] | 90% | 80% | 70% | 2.3[b] | – | herbicidal effect ABUTH [1]: 70% |
| CC(C#N)c1ccc(Nc2ncc(Cl)c(NC3CCC3)n2)cc1 (centres unmarked) [Compound 234] | – | – | – | – | 3.45[c] | – |
| CSc1cccc(Nc2ncc(Cl)c(NC3CCC3)n2)c1 [Compound 128] | 90% | 80% | 90% | 2.46[b] | – | – |
| CC(=O)Nc1ccc(Nc2ncc(Cl)c(NC3CCC3)n2)cc1Cl [Compound 118] | – | – | – | 1.78[b] | – | efficacy (nematicidal activity by formation of galls) [7]: > 80% |
| O=C(O)c1ccc(Nc2ncc(Br)c(NC3CCC3)n2)cc1 [Compound 156] | – | – | – | 1.94[b] | – | herbicidal effect CAPBP [8]: 70%; herbicidal effect STEME [9]: 70% |
| CSc1cccc(Nc2ncc(C(F)(F)F)c(NC3CCC3)n2)c1 [Compound 57] | – | – | – | – | 4.36[c] | log p [10]: 4.05[a]; |
| O=c1[nH]c2ccc(Nc3ncc(Br)c(NC4CCC4)n3)cc2o1 [Compound 5] | – | 70% | 70% | 1.59[b] | – | – |
| O=C1CCCN1c1cc(Nc2ncc(C(F)(F)F)c(NC3CCC3)n2)ccc1F [Compound 211] | – | – | – | – | 2.96[c] | log p [10]: 2.69[a]; |
| O=C1CCCN1c1cccc(Nc2ncc(C(F)(F)F)c(NC3CCC3)n2)c1 [Compound 55] | – | – | – | – | 3.09[c] | log p [10]: 2.64[a]; |
| O=C1CCCN1c1cccc(Nc2ncc(Br)c(NC3CCC3)n2)c1 [Compound 45] | 70% | 70% | 80% | 1.84[b] | – | – |
| CC1CC(C)CN(c2cccc(Nc3ncc(Cl)c(NC4CCC4)n3)c2)C1 (centres unmarked) [Compound 51] | – | – | – | – | 5.82[c] | log p [10]: 2.94[a]; |
| Fc1ccc(Nc2ncc(C(F)(F)F)c(NC3CCC3)n2)cc1 [Compound 58] | – | – | – | – | 4[c] | log p [10]: 3.5[a]; |
| N#CCC(=O)c1ccc(Nc2ncc(Br)c(NC3CCC3)n2)cc1 [Compound 149] | 90% | 90% | 70% | 2.57[b] | – | – |
| CSc1ccc(Nc2ncc(Cl)c(NC3CCC3)n2)cc1 [Compound 129] | – | 70% | 70% | 2.33[b] | – | – |
| Fc1ccc(Nc2ncc(Cl)c(NC3CCC3)n2)cc1 [Compound 47] | – | – | – | – | 3.7[c] | log p [10]: 2.15[a]; |
| CC(=O)Nc1cccc(Nc2ncc(Cl)c(NC3CCC3)n2)c1 [Compound 123] | 100% | 80% | 70% | 1.51[b] | – | – |
| CS(=O)(=O)c1cccc(Nc2ncc(Cl)c(NC3CCC3)n2)c1 [Compound 263] | – | – | – | – | 2.63[c] | – |
| CN(C)C(=O)c1ccc(Nc2ncc(C(F)(F)F)c(NC3CCC3)n2)cc1 [Compound 221] | – | – | – | 2.48[b] | – | efficacy (kill in %) [11]: ≥ 80% |
| CC(=O)Nc1cccc(Nc2ncc(Br)c(NC3CCC3)n2)c1 [Compound 96] | 70% | 90% | 70% | 1.54[b] | – | – |

| SMILES | herbicidal effect AMARE [2] | herbicidal effect CAPBP [3] | herbicidal effect STEME [4] | log p [5] | log p [6] | further results |
| --- | --- | --- | --- | --- | --- | --- |
| CSc1cccc(Nc2ncc(Br)c(NC3CCC3)n2)c1 [Compound 44] | – | 80% | 70% | 2.92[b] | – | – |
| O=C1CCCN1c1cccc(Nc2ncc(Cl)c(NC3CCC3)n2)c1 [Compound 48] | 70% | 70% | – | – | 2.74[c] | log p [10]: 1.71[a]; |
| CS(=O)(=O)Nc1cccc(Nc2ncc(Br)c(NC3CCC3)n2)c1 [Compound 87] | 80% | – | 70% | 1.73[b] | – | – |
| O=C1COCCN1c1ccc(Nc2ncc(Br)c(NC3CCC3)n2)cc1 [Compound 50] | 70% | – | 80% | 1.53[b] | – | – |
| FC(F)(F)c1cnc(Nc2ccccc2)nc1NC1CCC1 [Compound 54, N^4-Cyclobutyl-N^2-phenyl-5-(trifluoromethyl)pyrimidine-2,4-diamine] | – | – | – | – | – | chromatographic logP [10]: 3.33; chromatographic logP [6]: 3.96 |
| COc1cc(Nc2ncc(Br)c(NC3CCC3)n2)cc(OC)c1OC [Compound 38] | 90% | – | – | 2.04[b] | – | herbicidal effect ABUTH [1]: 70% |
| CN(C)C(=O)c1ccc(Nc2ncc(Br)c(NC3CCC3)n2)cc1 [Compound 100] | 70% | 70% | 70% | 1.73[b] | – | – |
| CN(C)C(=O)c1cccc(Nc2ncc(Br)c(NC3CCC3)n2)c1 [Compound 155] | 70% | 80% | 80% | 1.68[b] | – | – |
| CCSc1cccc(Nc2ncc(C(F)(F)F)c(NC3CCC3)n2)c1 [Compound 235] | – | – | – | – | 4.8[c] | – |
| CS(=O)(=O)Cc1cccc(Nc2ncc(Br)c(NC3CCC3)n2)c1 [Compound 88] | – | 70% | 80% | 1.66[b] | – | herbicidal effect CAPBP [8]: 90%; herbicidal effect STEME [9]: 80% |
| CC1(Nc2nc(Nc3ccccc3)ncc2Cl)CCC1 [Compound 52, 5-Chloro-N^4-(1-methylcyclobutyl)-N^2-phenylpyrimidine-2,4-diamine] | – | – | – | – | – | chromatographic logP [10]: 2.1; chromatographic logP [5]: 2.1 |
| CCN(CC)C(=O)c1ccc(Nc2ncc(Cl)c(NC3CCC3)n2)cc1 [Compound 250] | – | – | – | – | 3.19[c] | – |
| O=C1CCCN1c1ccc(Nc2ncc(C(F)(F)F)c(NC3CCC3)n2)cc1 [Compound 56] | – | – | – | – | 3.01[c] | log p [10]: 2.51[a]; |
| CC(=O)N(C)c1ccc(Nc2ncc(Cl)c(NC3CCC3)n2)cc1 [Compound 120] | 90% | 70% | – | 1.64[b] | – | – |
| O=C(c1cccc(Nc2ncc(Cl)c(NC3CCC3)n2)c1)N1CCOCC1 [Compound 262] | – | – | – | – | 2.39[c] | – |
| CC(=O)Nc1cc(Nc2ncc(Cl)c(NC3CCC3)n2)ccc1C [Compound 142] | 80% | – | – | 1.38[b] | – | herbicidal effect CAPBP [8]: 80%; herbicidal effect STEME [9]: 70%; herbicidal effect ABUTH [1]: 70% |
| CC(C)NC(=O)c1ccc(Nc2ncc(Cl)c(NC3CCC3)n2)cc1 [Compound 248] | – | – | – | – | 2.68[c] | – |
| CC(=O)N(C)c1cccc(Nc2ncc(Cl)c(NC3CCC3)n2)c1 [Compound 261] | – | – | – | – | 2.49[c] | – |
| CN1CCN(c2cccc(Nc3ncc(Br)c(NC4CCC4)n3)c2)C1=O [Compound 59] | – | 70% | 80% | 1.79[b] | – | herbicidal effect ABUTH [1]: 80% |
